This assay relates to B6C3F1 mice, Lewis lung carcinoma iv, survival T/C. In words: NCI In Vivo Anticancer Drug Screen. Data for tumor model Lewis Lung Carcinoma (intravenous) in B6C3F1 mice. Particulars: endpoint: median survival time, schedule: Q01DX009 (ip), higher = longer survival. Here is the method:
The antitumor activity of compounds was measured in mice bearing transplantable tumors. Survival or tumor size were measured and the results are expressed as the measurement made in the treated group (T) divided by the measurement made in the vehicle treated control group (C). The tumor model used in this assay is Lewis Lung Carcinoma (intravenous) in B6C3F1 mice

Where [1] appears, read: dose: 2.5 mg/kg/injection, vehicle: saline.
The mark [2] stands for this setting: dose: 10.0 mg/kg/injection, vehicle: saline.
Setting [3] is: dose: 20.0 mg/kg/injection, vehicle: saline.
Setting [4] is: dose: 4.0 mg/kg/injection, vehicle: saline with Tween-80.
[5] abbreviates: dose: 8.0 mg/kg/injection, vehicle: saline with Tween-80.
[6] abbreviates: dose: 16.0 mg/kg/injection, vehicle: saline with Tween-80.
Setting [7] is: dose: 32.0 mg/kg/injection, vehicle: saline with Tween-80.
Where [8] appears, read: dose: 12.5 mg/kg/injection, vehicle: saline with Tween-80.
[9] abbreviates: dose: 25.0 mg/kg/injection, vehicle: saline with Tween-80.
The mark [10] stands for this setting: dose: 50.0 mg/kg/injection, vehicle: saline with Tween-80.
The mark [11] stands for this setting: dose: 100.0 mg/kg/injection, vehicle: saline with Tween-80.
The mark [12] stands for this setting: dose: 200.0 mg/kg/injection, vehicle: saline with Tween-80.
The mark [13] stands for this setting: dose: 6.25 mg/kg/injection, vehicle: saline with Tween-80.
[14] abbreviates: dose: 12.5 mg/kg/injection, vehicle: Klucel (hydroxypropylcellulose) (HPC).
[15] abbreviates: dose: 25.0 mg/kg/injection, vehicle: Klucel (hydroxypropylcellulose) (HPC).
[16] abbreviates: dose: 50.0 mg/kg/injection, vehicle: Klucel (hydroxypropylcellulose) (HPC).
Setting [17] is: dose: 100.0 mg/kg/injection, vehicle: Klucel (hydroxypropylcellulose) (HPC).
[18] abbreviates: dose: 200.0 mg/kg/injection, vehicle: Klucel (hydroxypropylcellulose) (HPC).
[19] abbreviates: dose: 4.0 mg/kg/injection, vehicle: Klucel (hydroxypropylcellulose) (HPC).
Where [20] appears, read: dose: 400.0 mg/kg/injection, vehicle: saline with Tween-80.
The mark [21] stands for this setting: dose: 5.0 mg/kg/injection, vehicle: saline.

“And” between values parts separate entries of the source, which are not always exact repeats. Equal values may be shown once. Toxic doses and inconclusive results are not listed.

Regarding `O=NN(CCF)C(=O)NC1CCC(=O)NC1=O` (stereo not drawn), the T/C was 118 % of control under setting [1], 166 % of control under setting [2] and 312 % of control under setting [3].

Regarding `C=C1C(=O)OCC1(C(=O)OCC)C(=O)OCC`, the T/C runs as follows: under setting [4], 95 % of control; under setting [5], 103 % of control; under setting [6], 105 % of control; under setting [7], 96 % of control.

On to `CCCCCCOC(CN(C)C)C(Cl)(Cl)Cl` (stereo not drawn), for which the T/C by setting is: under setting [8], 106 % of control; under setting [9], 96 % of control; under setting [10], 90 % of control; under setting [11], 95 % of control; under setting [12], 95 % of control.

On to `c1ccc2c(c1)-c1ccccc1C1NC21` (stereo not drawn), for which the T/C under setting [13] was 100 % of control and the T/C under setting [8] is 106 % of control.

For the molecule `CC(C)(C)C1CCCCC1`, the T/C reads like this: under setting [14], 92 % of control; under setting [15], 93 % of control; under setting [16], 108 % of control; under setting [17], 101 % of control; under setting [18], 103 % of control; (dose: 400.0 mg/kg/injection, vehicle: Klucel (hydroxypropylcellulose) (HPC)) 96 % of control.

`CCOC(=O)Nc1cc2c(c(N)n1)N=C(c1ccccc1)CN2`: the T/C (dose: 1.25 mg/kg/injection, vehicle: saline with Tween-80) is 105 % of control; the T/C (dose: 2.5 mg/kg/injection, vehicle: saline with Tween-80) is 105 % of control; the T/C (dose: 5.0 mg/kg/injection, vehicle: saline with Tween-80) was 100 % of control.

With `O=NN(CCCl)C(=O)Oc1ccc(OC(=O)N(CCCl)N=O)cc1`, the T/C runs as follows: (dose: 0.5 mg/kg/injection, vehicle: Klucel (hydroxypropylcellulose) (HPC)) 95 % of control; (dose: 1.0 mg/kg/injection, vehicle: Klucel (hydroxypropylcellulose) (HPC)) 96 % of control; (dose: 2.0 mg/kg/injection, vehicle: Klucel (hydroxypropylcellulose) (HPC)) 105 % of control; (dose: 3.12 mg/kg/injection, vehicle: Klucel (hydroxypropylcellulose) (HPC)) 97 % of control; under setting [19], 111 % of control.

In the case of `N=C1CCCS1`, the T/C is 117 % of control (dose: 25.0 mg/kg/injection, vehicle: saline) and 122 % of control (dose: 50.0 mg/kg/injection, vehicle: saline).

For the molecule `OC1(CSc2ccccc2)CCCCC1`, the T/C was 95 % of control and 119 % of control under setting [8]; 107 % of control under setting [9]; 94 % of control and 114 % of control under setting [10]; 103 % of control and 106 % of control under setting [11]; 100 % of control and 105 % of control under setting [12]; 108 % of control and 110 % of control under setting [20].

Turning to `O=C1SC(c2ccccc2)=S=C1c1ccccc1`, the T/C under setting [9] was 100 % of control; the T/C under setting [10] was 93 % of control; the T/C under setting [11] was 95 % of control; the T/C under setting [12] was 104 % of control; the T/C under setting [20] is 108 % of control.

Turning to `Oc1c(Cl)cc(Cl)cc1C1N2CCCCC2C2c3cccn3-c3ccccc3N21` (stereo not drawn), the T/C is 106 % of control under setting [14]; 101 % of control under setting [15]; 104 % of control under setting [16]; 95 % of control under setting [17]; 102 % of control under setting [18].

`Cc1nc(N)nc(N)c1-c1ccc(Cl)c(Cl)c1`: the T/C (dose: 0.32 mg/kg/injection, vehicle: saline) was 97 % of control; the T/C (dose: 0.63 mg/kg/injection, vehicle: saline) was 109 % of control; the T/C (dose: 1.25 mg/kg/injection, vehicle: saline) was 120 % of control; the T/C under setting [1] was 113 % of control; the T/C under setting [21] was 124 % of control; the T/C under setting [2] was 112 % of control.

Regarding `CO[C@@H]1[C@H](O)CC[C@]2(CO2)[C@H]1[C@@]1(C)O[C@@H]1CC=C(C)C`, the T/C reads like this: (dose: 1.56 mg/kg/injection, vehicle: saline with Tween-80) 95 % of control and 101 % of control; (dose: 3.12 mg/kg/injection, vehicle: saline with Tween-80) 95 % of control and 103 % of control; under setting [13], 93 % of control and 101 % of control; under setting [8], 101 % of control; under setting [9], 106 % of control and 115 % of control; under setting [10], 103 % of control and 107 % of control.

In the case of `O=NN(CCCl)C(=O)Oc1cc(Cl)c(Cl)cc1Cl`, the T/C (dose: 11.56 mg/kg/injection, vehicle: Klucel (hydroxypropylcellulose) (HPC)) is 105 % of control; the T/C (dose: 23.13 mg/kg/injection, vehicle: Klucel (hydroxypropylcellulose) (HPC)) is 101 % of control; the T/C (dose: 46.25 mg/kg/injection, vehicle: Klucel (hydroxypropylcellulose) (HPC)) was 122 % of control.

Regarding `O=c1[nH]cc(F)c(=O)[nH]1`, the T/C is, setting by setting: under setting [21], 105 % of control; under setting [2], 97 % of control and 102 % of control; under setting [3], 107 % of control.

Consider `CCNC(=O)[B-][N+](C)(C)C`, for which the T/C by setting is: under setting [14], 98 % of control; under setting [15], 103 % of control; under setting [16], 100 % of control; under setting [17], 106 % of control.

For `CCCCC(=O)OCC(=O)[C@]1(O)Cc2c(O)c3c(c(O)c2[C@@H](OC2CC(NC(=O)C(F)(F)F)C(O)C(C)O2)C1)C(=O)c1c(OC)cccc1C3=O` (stereo partly drawn), the T/C under setting [19] was 100 % of control; the T/C under setting [4] is 107 % of control; the T/C (dose: 8.0 mg/kg/injection, vehicle: Klucel (hydroxypropylcellulose) (HPC)) is 100 % of control; the T/C under setting [5] was 88 % of control; the T/C (dose: 16.0 mg/kg/injection, vehicle: Klucel (hydroxypropylcellulose) (HPC)) was 107 % of control; the T/C under setting [6] was 96 % of control. The T/C reads like this: (dose: 32.0 mg/kg/injection, vehicle: Klucel (hydroxypropylcellulose) (HPC)) 110 % of control; under setting [7], 108 % of control; (dose: 64.0 mg/kg/injection, vehicle: Klucel (hydroxypropylcellulose) (HPC)) 118 % of control; (dose: 128.0 mg/kg/injection, vehicle: Klucel (hydroxypropylcellulose) (HPC)) 120 % of control.

As to `ClCCCN1CCCCC1CCl` (stereo not drawn), the T/C (dose: 0.78 mg/kg/injection, vehicle: saline) is 101 % of control; the T/C (dose: 1.56 mg/kg/injection, vehicle: saline) was 108 % of control; the T/C (dose: 3.12 mg/kg/injection, vehicle: saline) was 98 % of control; the T/C (dose: 6.25 mg/kg/injection, vehicle: saline) was 101 % of control; the T/C (dose: 12.5 mg/kg/injection, vehicle: saline) was 121 % of control.

Regarding `O=C(Nc1nncs1)c1cccs1`, the T/C is, setting by setting: under setting [8], 111 % of control; under setting [9], 93 % of control; under setting [10], 96 % of control; under setting [11], 103 % of control.

On to `O=C1c2ccccc2C(=O)c2c(NCCNCCO)ccc(O)c21`, for which the T/C under setting [1] is 104 % of control; the T/C under setting [21] was 116 % of control; the T/C under setting [2] is 96 % of control; the T/C under setting [3] is 104 % of control; the T/C (dose: 40.0 mg/kg/injection, vehicle: saline) is 117 % of control; the T/C (dose: 80.0 mg/kg/injection, vehicle: saline) is 117 % of control.

Source of the values: PubChem BioAssay AID276 (DTP/NCI, 2004).
